In patent US20230218654A1, “COMPOSITIONS AND METHODS FOR TREATING HYPERGLYCEMIA IN TYPE-2 DIABETES” (The Board of Regents of the university of Oklahoma, priority 2020, published 2023):
“Also recorded” adds a separate entry of the source.

Legend:
male C57BL/6J mice = test: Pyruvate tolerance test (PTT); format: in vivo; details: 60 mg/kg SQ twice; for blood glucose excursion / hepatic glucose production in PTT: 6 h fast, 60 mg/kg
Experimental: On the day of testing, mice were fasted for 6 h (from 9am to 3 pm). Mice were then given 2 g/kg sodium pyruvate via IP injection. Blood glucose was measured with an UltraTouch glucometer in time course over a 120-minute period.
Mice were treated with 2 doses of MLN4924 as described. After the second injection at 9 am, mice were fasted for 6 h from 9 am to 3 pm. Mice were injected intraperitoneally […] for PTT, and 0.5 U/kg insulin for ITT. Blood glucose was measured with a OneTouch Ultra glucose meter.

[1] = system: male C57BL/6J mice fed Chow or Western diet; test: MLN4924 intervention for 9 weeks in 16-week WD-fed mice (Experimental II); format: in vivo
Experimental: Chronic MLN4924 treatment attenuates hepatic steatosis in Western diet-fed mice. Male C57BL/6J mice were fed Chow (C) or Western diet (WD) for 16 weeks. MLN4924 treatment (60 mg/kg, SQ, every other day) was initiated after mice were fed WD for 7 weeks as indicated. Control mice were injected with vehicle. After 16 weeks of feeding, mice were fasted from 9 am to 3 pm and euthanized. Scale bar = 125 µm. […]
WT male C57BL/6J mice were purchased from the Jackson Lab (Bar Harbor, ME). Western diet (TD. 88137, Envigo Inc. Indianapolis, IN) contains 42% fat calories and 0.2% cholesterol. Mice were housed in micro-isolator cages with corn cob bedding under 7 am - 7 pm light cycle and 7 pm -7 am dark cycle. MLN4924 was prepared in 10% 2-hydroxypropyl-b-cyclodextrin to a final concentration of 3 mg/ml. All mice were fasted for 6 h from 9 am to 3 pm before euthanasia. All animals received humane care according to the criteria outlined in the “Guide for the Care and Use of Laboratory Animals.” All animal protocols were approved by the Institutional Animal Care and Use Committee at the University of Kansas Medical Center and the University of Oklahoma Health Sciences Center. […]
(§1) Human normal livers (less than 5% steatosis) and histologically confirmed NASH livers were obtained from either the University of Kansas Liver Center or the Liver Tissue Cell Distribution System (LTCDS) at the University of Minnesota. Human and mouse tissue samples were homogenized in 1XRIPA buffer containing 1% SDS and protease inhibitors. After incubation on ice for 1 hour, the samples were centrifugation and supernatant was transferred to a new tube. The protein lysate was mixed with equal volume of 2X laemmli buffer and incubated at 95° C. for 5 minutes and used for SDS-PAGE and immunoblotting. ImageJ software (NIH) was used to determine band intensity.
Total liver RNA was purified with Trizol (Sigma-Aldrich, St. Louis, MO). Total liver RNA was used in reverse transcription with Oligo dT primer and SuperScript III reverse transcriptase (Thermo Fisher Scientific, Grand Island, NY). Real-time PCR was performed on a Bio-Rad CFX384 Real-time PCR system with iQ SYBR Green Supermix (Bio-rad, Hercules, CA). The comparative CT (Ct) method was used to calculate the relative mRNA expression. The relative mRNA expression was expressed as 2 ^-ΔΔCt with the control group arbitrarily set as “1”. […]

[2] = system: skeletal muscle cullin neddylation and AKT phosphorylation; test: Western blot of gastrocnemius (skeletal) muscle after acute MLN4924; format: in vivo, mice; details: chow diet; 60 mg/kg SQ twice
Experimental: Male C57BL/6J mice on chow diet were treated with 60 mg/kg MLN6924 via subcutaneous (SQ) injection at 5 pm on day 1 and 9 am on day 2. Mice were fasted from 9 am to 3 pm on day 2 and sacrificed. Effect of MLN4924 on gastrocnemius muscle cullin neddylation and AKT phosphorylation was measured by Western blotting.
as §1
To further explore the hepatic insulin sensitizing effect of neddylation inhibition in vivo, we administered MLN4924 to chow-fed mice twice via subcutaneous (SQ) injection (5 pm on day 1 and 9 am on day 2) and studied the acute effect of MLN4924. The dose of 60 mg/kg is in line with published literature. […] In addition to liver, skeletal muscle is another organ that quantitatively contribute to plasma glucose homeostasis.

[3] = system: INS-1 832/13 rat pancreas β cells; test: Insulin secretion assay in INS-1 832/13 cells; format: cell-based
Experimental: Insulin secreted into the medium was measured, (c) Total remaining intracellular insulin was measured, (d) The % secreted insulin was the fraction of total medium insulin over the sum of insulin in the medium and cells. Results are from 3 independent experiments and expressed as mean ± SEM. Two-way ANOVA and Tukey post hoc test were used to calculate the p values.
INS-1 832/13 rat insulinoma cell line was purchased from Sigma-Aldrich (St. Louis, MO). Cells were cultured in 24-well plate in RPMI-1640 growth medium until 100% confluent. Cells were then treated with vehicle (DMSO) or 500 nM MLN4924 for 5 hrs. Cells were then incubated with 0.5 ml secretion assay buffer (SAB, 114 mM NaCl, 4.7 mM KCl, 1.2 mM KH2PO4, 1.16 mM MgSO4, 20 mM HEPES pH 7.2, 25.5 mM NaHCO3, 2.5 mM CaCl2, and 0.2% BSA) containing 2.5 mM glucose and either vehicle or 500 nM MLN4924 for 1 hr. This step was repeated once. Next, SAB containing 12 mM glucose (0.5 ml) was added to cells to stimulate insulin secretion for 1 hr. The SAB was then collected and cells were lysed in 0.2 ml 1X RIPA buffer. Insulin concentration in SAB and cell lysates was measured with an ELISA assay kit.

obese mice = test: Hyperinsulinemic-euglycemic clamp study; format: in vivo
Experimental: A hyperinsulinemic-euglycemic clamp study was conducted in which obese mice were treated with vehicle or MLN4924.

[4] = chronic MLN4924, 60 mg/kg SQ once every 2 days

SMILES: NS(=O)(=O)OC[C@@H]1C[C@@H](n2ccc3c(N[C@H]4CCc5ccccc54)ncnc32)C[C@@H]1O [MLN4924, ((1S,2S,4R)-4-(4-((1S)-2,3-dihydro-1H-inden-1-ylamino)-7H-pyrrolo[2,3-d]pyrimidin-7-yl)-2-hydroxycyclopentyl) methyl sulfamate]
- peak blood glucose at 30 minutes post pyruvate challenge (male C57BL/6J mice; vs vehicle): significantly lower
- blood glucose excursion / hepatic glucose production in PTT (male C57BL/6J mice; 4-week WD-fed mice): significantly lower
- blood glucose excursion / hepatic glucose production in PTT (male C57BL/6J mice; 4-week chow-fed mice): significantly lower; also recorded: significantly reduced hepatic glucose production
- ALT ([1]; WD-fed mice): significantly reduced ALT
- hepatic fat accumulation ([1]; WD-fed mice): significant reduction of hepatic fat accumulation
- plasma insulin levels ([1]; WD-fed mice): not reduced
- blood glucose ([1]; WD-fed mice, intervention for 9 weeks): completely normalized blood glucose
- liver histology ([1]; chow-fed MLN4924-treated mice): appeared normal
- plasma insulin ([1]; chow-fed mice): did not affect plasma insulin
- alanine aminotransferase (ALT) elevation ([1]; chow-fed mice, 9 weeks): did not cause alanine aminotransferase (ALT) elevation
- hypoglycemia ([1]; chow-fed mice, intervention for 9 weeks): without causing undesirable hypoglycemia
- hepatic glucose 6-phosphatase (G6Pase) gene ([1]; chronic MLN4924): decreased hepatic gluconeogenic gene glucose 6-phosphatase (G6Pase)
- liver pyruvate kinase (L-PK) gene ([1]; chronic MLN4924): downregulation of liver pyruvate kinase (L-PK)
- hepatic IRS protein [1, 4]: increased IRS protein
- hepatic cullin neddylation [1, 4]: decreased hepatic cullin neddylation
- hepatic downstream AKT activation [1, 4]: increased IRS protein and downstream AKT activation
- tolerability / hepatotoxicity ([1]; chronic MLN4924, 9 weeks): well tolerated and did not cause hepatotoxicity
- increase of AKT phosphorylation in skeletal muscle [2]: did not
- increase of IRS protein abundance in skeletal muscle [2]: did not
- inhibition of cullin neddylation in skeletal muscle [2]: did not inhibit cullin neddylation
- neddylation inhibition ([3]; 500 nM MLN4924, 7 hrs): strong neddylation inhibition
- basal insulin secretion ([3]; 500 nM MLN4924, 2.5 mM glucose): did not affect
- glucose-stimulated insulin secretion ([3]; 500 nM MLN4924, 12 mM glucose): did not affect
- glucose infusion rate (obese mice): ~ 30 mg/kg/min
- plasma insulin level during the clamp procedure (obese mice): ~ 3.75 ng/ml
